IC50 data for 28 molecules are collected here from patent US9006440B2, “Furopyridine derivatives” (Merck Patent GmbH, priority 2010, dated 2015).

pIC50: −log10 of the molar value.

Holding throughout (type): biochemical
Assay [1] has as its target T1, Zap70 (Homo sapiens, UniProt P43403).
T1 construct: purchased BPS Bioscience, CA, USA
T1 sequence (P43403 1-619): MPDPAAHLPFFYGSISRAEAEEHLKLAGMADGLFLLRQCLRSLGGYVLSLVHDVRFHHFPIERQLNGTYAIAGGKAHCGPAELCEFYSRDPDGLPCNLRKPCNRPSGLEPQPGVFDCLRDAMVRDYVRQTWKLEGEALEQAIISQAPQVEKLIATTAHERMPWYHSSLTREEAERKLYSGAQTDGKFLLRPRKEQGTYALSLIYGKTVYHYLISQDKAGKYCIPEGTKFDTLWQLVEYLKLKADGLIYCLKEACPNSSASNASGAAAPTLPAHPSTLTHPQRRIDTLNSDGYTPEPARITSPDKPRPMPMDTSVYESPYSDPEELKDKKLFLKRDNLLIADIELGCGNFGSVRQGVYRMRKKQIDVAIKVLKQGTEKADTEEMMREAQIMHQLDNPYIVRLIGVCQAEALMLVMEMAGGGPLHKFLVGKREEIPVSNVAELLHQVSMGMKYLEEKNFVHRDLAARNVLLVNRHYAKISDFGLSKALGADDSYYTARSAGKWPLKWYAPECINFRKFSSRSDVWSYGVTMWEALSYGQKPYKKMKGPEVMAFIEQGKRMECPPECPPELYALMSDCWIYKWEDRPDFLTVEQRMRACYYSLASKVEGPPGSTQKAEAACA
Kind of assay: ZAP-70 enzymatic assay (Caliper LifeSciences technology). As for the experimental part:
(§1) The assays described here are performed on the Caliper Life Sciences LC3000 system This technology provides data on enzyme activity via measurement of the relative amounts of phosphorylated or unphosphorylated fluorescently labelled substrate peptide at the end of an enzymatic reaction. These different states of peptide are resolved by applying a potential difference across the sample. The presence of the charged phosphate group on the product (as opposed to the substrate) causes a different peptide mobility between the two peptides. This is visualized by excitation of the fluorescent label on the substrate and product peptides and represented as peaks within the analysis software.
(§2) In order to measure inhibitor activity of kinase inhibitors on this technology, a TTP Mosquito liquid handling instrument is used to place 0.25 ul of the appropriate concentration of inhibitor in 100% DMSO (for a dose response curve calculation) into each well of a 384-well plate. To this reaction components are added to a final volume of 25 ul. The table below indicates the sequences and concentrations for the assays described in this report. Standard components are 1 mM DTT (Sigma, D0632), 1 mM MgCl2 (Sigma, M1028), 100 mM HEPES pH 7.5 (Calbiochem, 391338), 0.015% Brij-35 (Sigma, B4184).
(§3) The reaction is incubated for 90 min at 25 C, and then stopped by the addition of 70 ul of Stop buffer (100 mM HEPES pH 7.5, 0.015% Brij-35, 10 mM EDTA (Sigma, E7889)).
(§4) The plate is read on a Caliper LC 3000 in an Off-Chip mobility shift assay format, on a 12-sipper chip. Unphosphorylated substrate and phosphorylated product peptide resolve as separate peaks allowing direct measurement of percentage of conversion of substrate to product. The percent conversion can be plotted against concentration of inhibitor to produce a sigmoidal dose response curve, from which an IC50 can be calculated using GeneData Condoseo or a similar product.

The target of assay [2] is T2, Syk (Homo sapiens, UniProt P43405).
T2 construct: purchased BPS Bioscience, CA, USA
The assay can be described thus: Syk enzyme assay (SYK flash plate assay / Caliper mobility shift). In short, it runs like this: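 Flashplate format: 2.5 nM SYK, 400 nM biotinylated peptide, 10 μM ATP with 33P-ATP, pH 7.5, 1 h at 30 °C; radioactivity read, staurosporine background. Caliper format: 90 min at 25 °C, mobility-shift read of substrate-to-product conversion; IC50 from dose-response curve.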

The target of assay [3] is T3, KDR (Homo sapiens, UniProt P35968).
T3 construct: purchased BPS Bioscience, CA, USA
T3 sequence (P35968 20-1356): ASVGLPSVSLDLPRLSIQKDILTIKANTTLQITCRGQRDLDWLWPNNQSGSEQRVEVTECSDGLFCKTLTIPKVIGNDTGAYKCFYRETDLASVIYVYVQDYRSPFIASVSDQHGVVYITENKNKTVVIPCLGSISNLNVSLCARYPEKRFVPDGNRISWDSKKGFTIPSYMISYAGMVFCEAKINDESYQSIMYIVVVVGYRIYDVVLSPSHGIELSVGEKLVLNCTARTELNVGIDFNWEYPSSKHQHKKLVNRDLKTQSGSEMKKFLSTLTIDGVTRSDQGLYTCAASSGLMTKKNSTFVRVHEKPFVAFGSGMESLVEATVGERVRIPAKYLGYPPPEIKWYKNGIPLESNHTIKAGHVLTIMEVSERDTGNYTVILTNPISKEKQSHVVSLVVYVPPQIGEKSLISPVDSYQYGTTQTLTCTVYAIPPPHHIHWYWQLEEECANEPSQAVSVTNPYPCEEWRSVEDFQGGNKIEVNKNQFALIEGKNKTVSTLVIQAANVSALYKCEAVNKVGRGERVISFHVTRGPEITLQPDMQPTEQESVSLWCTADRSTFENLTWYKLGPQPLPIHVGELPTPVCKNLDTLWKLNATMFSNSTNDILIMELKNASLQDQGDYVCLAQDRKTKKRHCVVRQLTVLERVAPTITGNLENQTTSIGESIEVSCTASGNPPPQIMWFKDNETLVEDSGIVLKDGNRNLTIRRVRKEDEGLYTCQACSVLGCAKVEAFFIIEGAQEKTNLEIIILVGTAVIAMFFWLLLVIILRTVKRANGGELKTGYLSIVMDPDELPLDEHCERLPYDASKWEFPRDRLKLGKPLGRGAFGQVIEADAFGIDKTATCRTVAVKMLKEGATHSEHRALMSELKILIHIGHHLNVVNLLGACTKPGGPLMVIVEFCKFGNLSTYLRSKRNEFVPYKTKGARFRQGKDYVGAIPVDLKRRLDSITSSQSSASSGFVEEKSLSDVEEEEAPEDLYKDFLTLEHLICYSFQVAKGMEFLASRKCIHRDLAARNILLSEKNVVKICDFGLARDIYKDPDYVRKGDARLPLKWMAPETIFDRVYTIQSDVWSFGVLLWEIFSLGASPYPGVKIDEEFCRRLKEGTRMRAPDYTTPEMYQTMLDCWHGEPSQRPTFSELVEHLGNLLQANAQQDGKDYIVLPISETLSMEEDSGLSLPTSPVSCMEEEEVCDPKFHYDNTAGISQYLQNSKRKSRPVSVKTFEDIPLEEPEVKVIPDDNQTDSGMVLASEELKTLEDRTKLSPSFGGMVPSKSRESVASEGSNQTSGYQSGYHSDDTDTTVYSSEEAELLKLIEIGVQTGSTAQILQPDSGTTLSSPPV
Kind of assay: KDR enzymatic assay (Caliper LifeSciences technology). Summed up: (§5)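 Off-chip mobility-shift assay measuring conversion of a fluorescently labelled peptide substrate, in 100 mM HEPES pH 7.5, 1 mM DTT, 1 mM MgCl2 and 0.015% Brij-35. Reactions ran 90 min at 25 C and were stopped with EDTA. IC50s were derived from percent-conversion dose-response curves.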

Assay [4] has as its target T4, SRC (Homo sapiens, UniProt P12931).
T4 construct: purchased Carna Bioscience, Kobe, Japan
Kind of assay: Src enzymatic assay (Caliper LifeSciences technology). Summed up: as §5

Assay [5] deals with T5, BTK (Homo sapiens, UniProt Q06187).
T5 construct: purchased Carna Bioscience, Kobe, Japan
T5 sequence (Q06187 whole entry): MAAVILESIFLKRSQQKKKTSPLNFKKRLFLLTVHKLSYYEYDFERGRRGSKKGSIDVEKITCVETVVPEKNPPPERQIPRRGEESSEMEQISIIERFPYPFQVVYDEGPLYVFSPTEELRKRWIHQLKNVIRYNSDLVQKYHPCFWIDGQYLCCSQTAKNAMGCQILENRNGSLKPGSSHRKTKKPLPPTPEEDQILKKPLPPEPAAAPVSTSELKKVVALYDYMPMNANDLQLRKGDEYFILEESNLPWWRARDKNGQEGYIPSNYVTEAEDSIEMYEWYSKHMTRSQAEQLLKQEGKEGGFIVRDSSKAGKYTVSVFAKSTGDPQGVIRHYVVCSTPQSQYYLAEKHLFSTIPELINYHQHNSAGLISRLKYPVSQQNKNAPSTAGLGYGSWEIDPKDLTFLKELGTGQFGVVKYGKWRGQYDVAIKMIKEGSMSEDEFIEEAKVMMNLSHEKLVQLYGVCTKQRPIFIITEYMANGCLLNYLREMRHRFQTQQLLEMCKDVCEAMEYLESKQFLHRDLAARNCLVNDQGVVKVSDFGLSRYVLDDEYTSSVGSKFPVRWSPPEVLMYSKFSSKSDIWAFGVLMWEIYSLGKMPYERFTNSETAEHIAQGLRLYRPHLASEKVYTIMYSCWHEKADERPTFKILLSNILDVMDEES
The assay can be described thus: BTK enzymatic assay (Caliper LifeSciences technology). As for the experimental part:
as §1, §2, §3, §4

T4 sequence (P12931 whole entry): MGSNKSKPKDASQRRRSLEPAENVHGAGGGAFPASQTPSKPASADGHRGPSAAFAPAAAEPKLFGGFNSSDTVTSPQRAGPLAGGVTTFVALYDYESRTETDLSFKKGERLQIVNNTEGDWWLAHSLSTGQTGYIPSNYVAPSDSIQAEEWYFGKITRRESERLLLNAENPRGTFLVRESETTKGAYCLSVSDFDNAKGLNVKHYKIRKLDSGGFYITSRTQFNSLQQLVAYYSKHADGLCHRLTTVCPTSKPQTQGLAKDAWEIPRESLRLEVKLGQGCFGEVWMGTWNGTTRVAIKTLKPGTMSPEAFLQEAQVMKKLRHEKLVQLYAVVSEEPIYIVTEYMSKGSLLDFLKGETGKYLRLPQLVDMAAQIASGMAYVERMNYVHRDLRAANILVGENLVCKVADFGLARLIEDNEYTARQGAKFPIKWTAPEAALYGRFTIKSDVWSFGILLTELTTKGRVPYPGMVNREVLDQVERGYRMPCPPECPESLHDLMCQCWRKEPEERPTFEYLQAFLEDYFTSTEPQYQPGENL

Usually pIC50 stands for the negative decadic logarithm of the IC50, by convention in mol/L. Regarding `COc1cc(-c2cc3nccc(-c4cccc5[nH]ncc45)c3o2)cc(OC)c1OC` [Compound A17, 7-(1H-Indazol-4-yl)-2-(3,4,5-trimethoxy-phenyl)-furo[3,2-b]pyridine], the values for the pIC50 in assay [1], in assay [2] and in assay [3] were 4.30 to 5.52, greater than 6.52 and 5.52 to 6.52, respectively.

Take `COc1cc(-c2cc3nccc(-c4c[nH]c5ccccc45)c3o2)cc(OC)c1OC` [Compound A25, 7-(1H-Indol-3-yl)-2-(3,4,5-trimethoxy-phenyl)-furo[3,2-b]pyridine]: the pIC50 in assay [1] is 4.30 to 5.52; in assay [2], 5.52 to 6.52; in assay [3], 4.30 to 5.52; in assay [4], 4.30 to 5.52.

As to `COc1cc(-c2cc3nccc(-c4ccc(C(=O)O)cc4)c3o2)cc(OC)c1OC` [Compound A42, 4-[2-(3,4,5-Trimethoxy-phenyl)-furo[3,2-b]pyridin-7-yl]-benzoic acid], the pIC50 is 5.52 to 6.52 in assay [1], greater than 6.52 in assay [2], 4.30 to 5.52 in assay [3] and 4.30 to 5.52 in assay [4].

In the case of `COc1cc(-c2cc3nccc(-c4cccc(C(=O)NC5CCCCC5N)c4)c3o2)cc(OC)c1OC` (stereo not drawn) [Compound A45, N-(2-Amino-cyclohexyl)-3-[2-(3,4,5-trimethoxy-phenyl)-furo[3,2-b]pyridin-7-yl]-benzamide], the pIC50 is 4.30 to 5.52 in assay [1], greater than 6.52 in assay [2], 4.30 to 5.52 in assay [3] and 5.52 to 6.52 in assay [4].

Take `COc1cc(-c2cc3nccc(-c4cccc(N)c4)c3o2)cc(OC)c1OC` [Compound A55, 3-[2-(3,4,5-Trimethoxy-phenyl)-furo[3,2-b]pyridin-7-yl]-phenylamine]: the pIC50 in assay [1] was 5.52 to 6.52; in assay [2] it was greater than 6.52; in assay [3] it was 4.30 to 5.52.

Regarding `COc1cc(-c2cc3nccc(-c4ccc(N)cc4)c3o2)cc(OC)c1OC` [Compound A56, 4-[2-(3,4,5-Trimethoxy-phenyl)-furo[3,2-b]pyridin-7-yl]-phenylamine], the negative logarithm of the IC50 (pIC50) in assay [1] was 5.52 to 6.52; in assay [2], greater than 6.52; in assay [3], 5.52 to 6.52.

As for `CNC(=O)c1ccccc1Nc1ccnc2cc(-c3cc(OC)c(OC)c(OC)c3)oc12` [Compound B8, N-Methyl-2-[2-(3,4,5-trimethoxy-phenyl)-furo[3,2-b]pyridin-7-ylamino]-benzamide], the pIC50 in assay [5], in assay [2] and in assay [4] was 5.52 to 6.52 each time.

Turning to `OCc1ccc(-c2cc3nccc(-c4ccc(CO)cc4)c3o2)cc1` [Compound B44, {4-[2-(4-Hydroxymethyl-phenyl)-furo[3,2-b]pyridin-7-yl]-phenyl}-methanol], the pIC50 in assay [5] was 4.30 to 5.52; in assay [2], 5.52 to 6.52; in assay [3], greater than 6.52.

For `Cc1c(Nc2ccnc3cc(-c4ccc(CO)cc4)oc23)ccc2[nH]ccc12` [Compound B61, {4-[7-(4-Methyl-1H-indol-5-ylamino)-furo[3,2-b]pyridin-2-yl]-phenyl}-methanol], the pIC50 in assay [1] is greater than 6.52; in assay [2], 5.52 to 6.52; in assay [3], greater than 6.52.

As for `COc1cc(-c2cc3nccc(-c4ccc5c(c4)OCO5)c3o2)cc(OC)c1OC` [Compound B76, 7-(Benzo[d][1,3]dioxol-5-yl)-2-(3,4,5-trimethoxyphenyl)furo[3,2-b]pyridine], the results for the pIC50 in assay [1] and in assay [2] were 5.52 to 6.52 and greater than 6.52, respectively.

`Nc1cccc(-c2cc3nccc(Oc4ccc(Oc5ccccc5)cc4)c3o2)c1` [Compound B79, 3-[7-(4-Phenoxyphenoxy)furo[3,2-b]pyridin-2-yl]aniline]: the pIC50 in assay [5] is 5.52 to 6.52; in assay [2], 4.30 to 5.52.

For the molecule `COc1cc(-c2cc3nccc(-c4c(OC)cccc4OC)c3o2)cc(OC)c1OC` [Compound C2], the pIC50 in assay [1] was 4.30 to 5.52; in assay [2] it was greater than 6.52; in assay [3], 4.30 to 5.52; in assay [4], 5.52 to 6.52.

For `COc1cc(-c2cc3nccc(-c4cccc(C(=O)NCc5n[nH]c(=O)[nH]5)c4)c3o2)cc(OC)c1OC` [Compound C12], the pIC50 in assay [1] was 4.30 to 5.52; in assay [2], greater than 6.52; in assay [3], 5.52 to 6.52.

In the case of `COc1cc(-c2cc3nccc(-c4cnn(C)c4)c3o2)ccc1O` [Compound C26], the pIC50 in assay [1] was 5.52 to 6.52; in assay [2], greater than 6.52; in assay [3], 5.52 to 6.52; in assay [4], 5.52 to 6.52.

With `COc1cc(-c2cc3nccc(-c4ccc(CO)nc4)c3o2)cc(OC)c1OC` [Compound C27], the pIC50 is 4.30 to 5.52 in assay [1], greater than 6.52 in assay [2] and 4.30 to 5.52 in assay [3].

With `Cn1cc(-c2ccnc3cc(-c4cccc(N)c4)oc23)cn1` [Compound C29], the pIC50 is 4.30 to 5.52 in assay [1], greater than 6.52 in assay [2], 5.52 to 6.52 in assay [3] and 4.30 to 5.52 in assay [4].

Consider `COc1ccc(-c2cc3nccc(-c4ccccc4)c3o2)cc1NC(=O)[C@@H]1CCCN1` [Compound C30], for which the pIC50 in assay [1] was 4.30 to 5.52; in assay [2], 5.52 to 6.52; in assay [3], 5.52 to 6.52.

In the case of `COc1cc(NC(=O)[C@@H]2C[C@@H](O)CN2)cc(-c2cc3nccc(-c4ccccc4)c3o2)c1` [Compound C46], the figures for the pIC50 in assay [1], in assay [2] and in assay [3] were 4.30 to 5.52, greater than 6.52 and 4.30 to 5.52, respectively.

Consider `COc1cc(-c2cc3nccc(-c4cnn(Cc5ccccc5)c4)c3o2)cc(OC)c1OC` [Compound C58], for which the pIC50 in assay [1] and in assay [2] was greater than 6.52 in each case.

As for `COc1cc(-c2cc3nccc(-c4ccc5[nH]cnc5c4)c3o2)cc(OC)c1OC` [Compound C60], the pIC50 in assay [1] was 4.30 to 5.52; in assay [2], greater than 6.52; in assay [3], 5.52 to 6.52; in assay [4] it was 4.30 to 5.52.

Consider `COc1cc(-c2cc3nccc(-c4ccnn4C)c3o2)cc(OC)c1OC` [Compound C64], for which the pIC50 was 4.30 to 5.52 in assay [1] and 5.52 to 6.52 in assay [2].

Turning to `COCC(O)Cn1cc(-c2ccnc3cc(-c4cc(OC)c(OC)c(OC)c4)oc23)cn1` (stereo not drawn) [Compound C66], the pIC50 was 4.30 to 5.52 in assay [1], 5.52 to 6.52 in assay [2] and 5.52 to 6.52 in assay [3].

Regarding `COc1cc(-c2cc3nccc(-c4ccc5[nH]nnc5c4)c3o2)cc(OC)c1OC` [Compound C70], the values for the pIC50 in assay [1], in assay [2] and in assay [3] were 5.52 to 6.52, greater than 6.52 and 5.52 to 6.52, respectively.

In the case of `Cn1cc(-c2ccnc3cc(-c4ccc5nc[nH]c5c4)oc23)cn1` [Compound C123], the values for the pIC50 in assay [5], in assay [2] and in assay [3] were 4.30 to 5.52, greater than 6.52 and 5.52 to 6.52, respectively.

As for `COc1cc(-c2cc3nccc(-c4ccnc(NCC5CCCNC5)c4)c3o2)cc(OC)c1OC` (stereo not drawn) [Compound C185], the negative logarithm of the IC50 (pIC50) in assay [1] was 4.30 to 5.52; in assay [2], greater than 6.52; in assay [4], greater than 6.52.

In the case of `Cc1cc2nccc(Oc3cccc(NC(=O)CCl)c3)c2o1` [Compound D27, 2-Chloro-N-[3-(2-methyl-furo[3,2-b]pyridin-7-yloxy)-phenyl]-acetamide], the negative-log IC50 (pIC50) in assay [5] is greater than 6.52.

`CCC(=O)Nc1cccc(Oc2ccnc3cc(C)oc23)c1` [Compound D28, N-[3-(2-Methyl-furo[3,2-b]pyridin-7-yloxy)-phenyl]-propionamide] had a pIC50 in assay [5] of 4.30 to 5.52.

Molecule `CCC(=O)Nc1cccc(-c2ccnc3cc(C)oc23)c1` [Compound D29, N-[3-(2-Methyl-furo[3,2-b]pyridin-7-yl)-phenyl]-propionamide] gave a pIC50 in assay [5] of 4.30 to 5.52.
